The source of these data is the supplement of paper PMC10011410.

Assay [1] has as its system U-2 OS. Nature of the assay: intracellular GSH:GSSG ratio (calculated); higher = more reduced glutathione pool. As to conditions: 24 h. As to the method: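 Intracellular glutathione in U-2 OS cells after 24 h compound treatment at 5, 10 and 20 uM (some at 40 and 80 uM). Total glutathione and GSSG were measured with the GSH/GSSG-Glo kit, and the GSH:GSSG ratio was calculated. Mean of five technical replicate plates.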

In assay [2] the test system is U-2 OS. Nature of the assay: cell viability (CellTiter-Glo) relative to DMSO (% of control); higher = more viable. To be noted: 24 h. As to the method:
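Cell viability of U-2 OS cells by CellTiter-Glo after 24 h compound treatment at 5, 10 and 20 uM (some at 40 and 80 uM), measured in parallel with the glutathione assay, as percent of DMSO control. Five technical replicate plates, averaged.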

Assay [3] deals with U-2 OS. Nature of the assay: total intracellular glutathione (GSH + GSSG) relative to DMSO (% of control); higher = more glutathione. To be noted: 24 h. As to the method: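 Total intracellular glutathione (GSH + GSSG) in U-2 OS cells by GSH/GSSG-Glo after 24 h compound treatment at 5, 10 and 20 uM (some at 40 and 80 uM), as percent of DMSO control. Five technical replicate plates, averaged.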

In assay [4] the test system is U-2 OS. Nature of the assay: cell painting activity score (Mahalanobis distance from DMSO wells); higher = stronger morphological phenotype. As to conditions: 24 h. The essentials: (§1)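 In this cell painting assay, roughly 1,500 U-2 OS cells per well in 384-well plates were pin-tool treated at 37 °C for 24 h, typically at six 2-fold steps from 20 μM down to 625 nM. Cells were stained with MitoTracker, concanavalin A, phalloidin, wheat germ agglutinin, Hoechst and SYTO 14, imaged on an Opera Phenix, and analysed in CellProfiler with normalization to same-plate DMSO cells. Reported values are means of four replicate plates, with the activity score defined as the Mahalanobis distance from DMSO wells and cell count defined relative to DMSO wells.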

For assay [5], the system named is U-2 OS. Nature of the assay: relative cell count vs DMSO (cell painting) (fraction of DMSO control); higher = more cells remaining (less cytotoxic). As to conditions: 24 h. The essentials: as §1
Assay [6] relates to U-2 OS. Nature of the assay: AUC of culture confluence over time (live-cell imaging) (AUC (confluence % x time)); higher = more confluent culture (less growth inhibition). In a few lines: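 Reported values are areas under curves of confluence against time, recorded by live-cell imaging of U-2 OS cells. Cells in F-12K medium with 10% FBS, seeded at 750 per well in 384-well plates, were treated by pin tool 24 h later, most compounds at 20, 10 and 5 μM with 0.2% DMSO. Imaging at 37 °C took place every 4 h for up to 60 h.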

± gives the standard deviation of the averaged measurements.

On to `O=S1(=O)CC(Sc2cccs2)c2ccccc21` (stereo not drawn), for which the “intracellular GSH:GSSG ratio” value was 25.2 in assay [1] (5 µM), 24.8 in assay [1] (10 µM) and 30 in assay [1] (20 µM). The cell viability came to 103 ± 5.5 in assay [2] (5 µM), 100 ± 5.5 in assay [2] (10 µM) and 104 ± 4.5 in assay [2] (20 µM). The total intracellular glutathione in assay [3] (5 µM) worked out at 115 ± 4.9; in assay [3] (10 µM), 107 ± 9.4; in assay [3] (20 µM), 120 ± 8.6. The “cell painting activity score” value came to 3.43 in assay [4] (0.625 µM); 3.86 in assay [4] (1.25 µM); 4.15 in assay [4] (2.5 µM); 3.78 in assay [4] (5 µM); 3.12 in assay [4] (10 µM); 10.7 in assay [4] (20 µM). Further, the relative cell count in assay [5] (0.625 µM) worked out at 1.02; in assay [5] (1.25 µM), 0.974; in assay [5] (2.5 µM), 0.948; in assay [5] (5 µM), 1; in assay [5] (10 µM), 0.984; in assay [5] (20 µM), 0.61.
In the case of `CC(Cc1ccc(O)c(O)c1)C(C)Cc1ccc(O)c(O)c1` (stereo not drawn), the “intracellular GSH:GSSG ratio” value is 24 in assay [1] (5 µM), 47.5 in assay [1] (10 µM), 22.3 in assay [1] (20 µM) and 22.5 in assay [1] (40 µM). The cell viability in assay [2] (5 µM) was found to be 101 ± 4; in assay [2] (10 µM), 104 ± 8.2; in assay [2] (20 µM), 100 ± 5.4; in assay [2] (40 µM), 87.1 ± 6.5; in assay [2] (80 µM), 0.624 ± 0.073. Besides, the “cell painting activity score” value came to 4.39 in assay [4] (0.625 µM); 8.68 in assay [4] (1.25 µM); 11.8 in assay [4] (2.5 µM); 13.1 in assay [4] (5 µM); 15.4 in assay [4] (10 µM); 12.1 in assay [4] (20 µM). Also, the results for the “cell painting activity score” value in assay [4] (40 µM) and in assay [4] (80 µM) were 17.4 and 22.6, respectively. In addition, the relative cell count in assay [5] (0.625 µM) amounted to 0.839; in assay [5] (1.25 µM) it was 0.852; in assay [5] (2.5 µM) it was 0.896; in assay [5] (5 µM) it was 0.816; in assay [5] (10 µM), 0.835; in assay [5] (20 µM), 0.359. The relative cell count in assay [5] (40 µM) is 0.261; in assay [5] (80 µM), 0.228. Further, the “AUC of culture confluence over time” value was 42.1 in assay [6] (5 µM); 39.8 in assay [6] (10 µM); 43.8 in assay [6] (20 µM); 28.7 in assay [6] (40 µM); 19.1 in assay [6] (80 µM).
As for `C=CC(=O)N1CCN(c2ncnc3c(F)c(-c4c(O)cccc4F)c(Cl)cc23)CC1`, the “intracellular GSH:GSSG ratio” value was 18.9 in assay [1] (5 µM), 16.4 in assay [1] (10 µM) and 11.6 in assay [1] (20 µM). The cell viability was determined as 91.3 ± 4.4 in assay [2] (5 µM), 89.2 ± 6.2 in assay [2] (10 µM) and 100 ± 6.9 in assay [2] (20 µM). Moreover, the total intracellular glutathione in assay [3] (5 µM) was found to be 105 ± 3.9; in assay [3] (10 µM), 104 ± 3.3; in assay [3] (20 µM), 102 ± 3.2. Moreover, the “cell painting activity score” value in assay [4] (0.625 µM) was 10.3; in assay [4] (1.25 µM) it was 8.82; in assay [4] (2.5 µM), 11.4; in assay [4] (5 µM), 11; in assay [4] (10 µM), 11.8; in assay [4] (20 µM), 16. The relative cell count in assay [5] (0.625 µM) came out at 0.691; in assay [5] (1.25 µM) it was 0.719; in assay [5] (2.5 µM), 0.571; in assay [5] (5 µM), 0.555; in assay [5] (10 µM), 0.531; in assay [5] (20 µM) it was 0.516.
For `Oc1cccc(-c2nc(N3CCOCC3)c3oc4ncccc4c3n2)c1`, the “intracellular GSH:GSSG ratio” value in assay [1] (5 µM) was 22.3; in assay [1] (10 µM), 19.6; in assay [1] (20 µM), 20.9. Moreover, the cell viability in assay [2] (5 µM) is 58.4 ± 1.5; in assay [2] (10 µM) it was 56.8 ± 2.5; in assay [2] (20 µM), 55.17 ± 0.53. Further, the total intracellular glutathione is 58.8 ± 2.2 in assay [3] (5 µM), 60.1 ± 3.8 in assay [3] (10 µM) and 58.6 ± 2.4 in assay [3] (20 µM). For the same compound, the “cell painting activity score” value stood at 9.68 in assay [4] (0.625 µM); 11.3 in assay [4] (1.25 µM); 11.4 in assay [4] (2.5 µM); 11.6 in assay [4] (5 µM); 10 in assay [4] (10 µM); 11.3 in assay [4] (20 µM). Besides, the relative cell count in assay [5] (0.625 µM) is 0.904; in assay [5] (1.25 µM) it was 0.875; in assay [5] (2.5 µM), 0.774; in assay [5] (5 µM), 0.734; in assay [5] (10 µM), 0.738; in assay [5] (20 µM) it was 0.682.
